Reference: patent publication US7365202B2, “Polymorphs of an androgen receptor modulator” (Merck & Co., Inc., priority 2005, dated 2008)

Legend:
[1] = Description: The weight increase was based on the initial total sample weight at 25% RH.
[2] = test system: human AR in MDA-MB-453 cells; assay: Trans-Activation Modulation of Androgen Receptor (TAMAR), MMTV-LUC reporter; format: cell-based
Description: Trans-Activation Modulation of Androgen Receptor (TAMAR)
This assay assesses the ability of test compounds to control transcription from the MMTV-LUC reporter gene in MDA-MB-453 cells, a human breast cancer cell line that naturally expresses the human AR. The assay measures induction of a modified MMTV LTR/promoter linked to the LUC reporter gene.
20,000 to 30,000 cells/well are plated in a white, clear-bottom 96-well plate in “Exponential Growth Medium” which consists of phenol red-free RPMI 1640 containing 10%FBS, 4 mM L-glutamine, 20 mM HEPES, 10 ug/mL human insulin, and 20 ug/mL gentamicin. Incubator conditions are 37° C. and 5% CO2. The transfection is done in batch mode. The cells are trypsinized and counted to the right cell number in the proper amount of fresh media, and then gently mixed with the Fugene/DNA cocktail mix and plated onto the 96-well plate. All the wells receive 200 TI of medium+lipid/DNA complex and are then incubated at 37° C. overnight. The transfection cocktail consists of serum-free Optimem, Fugene6 reagent and DNA. The manufacturer's (Roche Biochemical) protocol for cocktail setup is followed. The lipid (Tl) to DNA (Tg) ratio is approximately 3:2 and the incubation time is 20 minutes at room temperature. Sixteen to 24 hrs after transfection, the cells are treated with test compounds such that the final DMSO (vehicle) concentration is <3%. […]

[3] = target: T1, rhAR NTD/CTD interaction in CV-1 monkey kidney cells (Macaca mulatta, UniProt Q6QT55); assay: Mammalian two-hybrid assay for ligand-induced interaction of N-terminus and C-terminus domains of the androgen receptor (agonist mode: VIRCON); format: cell-based; details: at 10 micromolar; read-out: agonist activity (Emax relative to the activity obtained with 3 nM R1881)
T1 construct: pCBB1 (Gal4DBD-rhARLBD fusion construct expressed under the SV40 early promoter); expressed in transfected cells; host or cells: CV-1 monkey kidney cells
T1 sequence (Q6QT55 644-895): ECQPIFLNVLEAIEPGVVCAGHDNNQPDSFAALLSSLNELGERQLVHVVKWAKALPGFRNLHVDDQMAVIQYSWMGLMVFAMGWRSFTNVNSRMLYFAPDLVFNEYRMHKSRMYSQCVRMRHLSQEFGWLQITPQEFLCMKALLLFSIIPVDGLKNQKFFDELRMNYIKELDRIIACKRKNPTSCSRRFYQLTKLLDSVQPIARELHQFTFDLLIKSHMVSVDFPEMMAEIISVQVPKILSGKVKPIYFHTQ
Description: Mammalian Two-Hybrid Assay for the Ligand-Induced Interaction of N-Terminus and C-Terminus Domains of the Androgen Receptor (Agonist Mode: VIRCON)
This assay assesses the ability of AR agonists to induce the interaction between the N-terminal domain (NTD) and C-terminal domain (CTD) of rhAR that reflects the in vivo virilizing potential mediated by activated androgen receptors. The interaction of NTD and CTD of rhAR is quantified as ligand induced association between a Gal4DBD-rhARCTD fusion protein and a VP16-rhARNTD fusion protein as a mammalian two-hybrid assay in CV-1 monkey kidney cells.
The day before transfection, CV-1 cells are trypsinized and counted, and then plated at 20,000 cells/well in 96-well plates or larger plates (scaled up accordingly) in DMEM+10% FCS. […]
For each well, 0.4 μL LIPOFECTAMINE Reagent (GIBCO-BRL) is diluted into 4.6 μL OPTI-MEM in a second tube and mixed to form the diluted LIPOFECTAMINE Reagent. […] Forty eight hours later, luciferase activity is measured using LUC-Screen system (TROPIX) following the manufacturer's protocol. […] After incubation for 40 minutes at room temperature, luminescence is directly measured with 2-5 second integration. […]

| SMILES | loss of total weight ([1]; 25° C., relative humidity decreases from 95% to 5% RH) | moisture uptake (weight increase based on initial total sample weight at 25% RH) ([1]; from about 25% to about 95% RH at 25° C.) | partial agonist activity (Emax relative to the activity obtained with 100 nM R1881) [2] | Emax at 10 µM [3] |
| --- | --- | --- | --- | --- |
| CN1C(=O)C(F)=C[C@]2(C)[C@H]3CC[C@]4(C)[C@@H](C(=O)NCc5nc6ncccc6[nH]5)CC[C@H]4[C@@H]3CC[C@@H]12 [Form B, N-(3H-imidazo[4,5-b]pyridin-2-ylmethyl)-2-fluoro-4-methyl-3-oxo-4-aza-5α-androst-1-en-17β-carboxamide] | about 8% | about 7% | – | – |
| CN1C(=O)C(F)=C[C@]2(C)C3CC[C@]4(C)[C@@H](C(=O)NCc5nc6cccnc6[nH]5)CC[C@H]4C3CC[C@@H]12 (stereo partly drawn) [compound of formula I, N-(3H-imidazo[4,5-b]pyridin-2-ylmethyl)-2-fluoro-4-methyl-3-oxo-4-aza-5-alpha-androst-1-en-17-beta-carboxamide] | – | – | greater than 10% | < 50% |
